What all share (test): DTP human tumour cell line panel, 48 h
Test [1] has as its system HOP-62 NSCLC.
Test [2] deals with OVCAR-3 ovarian.
In test [3] the test system is COLO 205 colon.
Test [4] has as its system CAKI-1 renal.
Test [5] has as its system UO-31 renal.
The subject of test [6] is A549 NSCLC.
Test [7] concerns LOX IMVI melanoma.
Test [8] has as its system OVCAR-5 ovarian.
The subject of test [9] is RXF 393 renal.
Test [10] deals with UACC-62 melanoma.

Experimental findings from PubChem BioAssay (NCI) are described below.

Molecules are shown by their SMILES.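 Cells were grown in 96-well plates and exposed to each compound for 48 hours at five concentrations; endpoints were interpolated linearly between bracketing concentrations, or set to the highest concentration if not reached. Here, GI50 denotes the concentration required for 50% inhibition of growth. TGI: total growth inhibition.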

One may read the GI50 as the concentration at which growth is held to half of that of the control. One may read the TGI as the concentration at which net growth stops. Read a high TGI as lower sensitivity of the cells. As to `CCOC(=O)C#Cc1c(CC(=O)OCC)nnn1[C@H]1O[C@@H](CO)[C@@H]2OC(C)(C)O[C@@H]21`, the GI50 in test [1] was 18.2 µM; in test [2], 1.75 µM; in [3] it was 2.05 µM; in test [4], 1.71 µM; in test [5], 2.82 µM; in test [6], 23.7 µM. Moreover, the GI50 in [7] is 1.35 µM; in test [8], 12.1 µM; in [9], 1.69 µM; in [10], 1.84 µM. The concentration for total growth inhibition (TGI) in test [1] came to 34.2 µM; in [2], 3.22 µM; in test [3] it was 4.06 µM; in test [4], 3.15 µM; in test [5], 10.3 µM; in test [6], 41.9 µM. Besides, the TGI in [7] was 2.97 µM; in test [8], 27.3 µM; in test [9] it was 3.32 µM; in test [10] it was 4.14 µM.

Regarding `Cc1cccc2c1C(=O)OC2(C)c1cccc2ccccc12` (stereo not drawn), the TGI in test [2] is 78.8 µM; in test [4], above 100 µM; in test [5] it was above 100 µM; in test [6] it was above 100 µM; in test [7], above 100 µM; in [8], above 100 µM. In addition, the total growth inhibition concentration (TGI) in test [9] turned out to be 84.6 µM.

Turning to `CC(C)(c1ccc(OC#N)cc1)c1ccc(OC#N)cc1`, the TGI in [1] is above 100 µM; in [2], above 100 µM; in test [3], above 67.7 µM; in [4] it was above 100 µM; in test [5], above 100 µM; in test [6] it was above 100 µM. In addition, the total growth inhibition concentration (TGI) was above 70.8 µM in test [7], above 100 µM in [8], above 100 µM in [9] and above 100 µM in [10].

Take `CC(=O)c1c[nH]cc1CO`: the TGI in test [1], in test [2], in test [3], in [4], in [5] and in test [6] was above 10 µM in each case. Moreover, the TGI in [7], in test [8] and in [9] was above 10 µM throughout.

Consider `O=C1C[C@@H]2CCCC[C@@H]2C12SCCS2`, for which the TGI in test [1], in test [2], in test [3], in test [4], in [5] and in test [6] was above 100 µM each time. Also, the TGI in [7], in test [8], in [9] and in test [10] was above 100 µM throughout.

On to `COc1ccccc1/C=N/N=C(\N)NO`, for which the total growth inhibition concentration (TGI) is 76.6 µM in [1]; above 100 µM in test [2]; above 100 µM in [3]; above 100 µM in test [4]; above 100 µM in test [5]; 81.1 µM in test [6]. For the same molecule, the concentration for total growth inhibition (TGI) is above 100 µM in [7], 24.3 µM in [8], above 100 µM in test [9] and 33.7 µM in [10].

As to `c1ccc(SC(CCCCOC2CCCCO2)Sc2ccccc2)cc1` (stereo not drawn), the TGI is above 100 µM in [1]; above 100 µM in test [2]; above 100 µM in test [3]; above 100 µM in test [4]; 76.5 µM in [5]; above 100 µM in test [6]. Further, the TGI in test [7], in test [8], in test [9] and in test [10] was above 100 µM in each case.

As for `N#Cc1nc2cc(F)c(F)cc2nc1-c1ccc(Cl)cc1`, the GI50 in test [1] was 45 µM; in test [2] it was 2.24 µM; in [3] it was 26.9 µM; in [4], 15.1 µM; in test [5] it was 12.2 µM; in test [6], 39.3 µM. Besides, the GI50 in [7] was 1.32 µM; in test [8] it was above 100 µM; in test [9], 6.23 µM; in test [10], 0.645 µM. Moreover, the TGI in test [1] is above 100 µM; in [2] it was 8.28 µM; in [3] it was above 100 µM; in test [4], 38.5 µM; in test [5] it was 38.1 µM; in test [6] it was above 100 µM. In addition, the TGI in [7] is 2.68 µM; in test [8], above 100 µM; in test [9], 18.3 µM; in [10], 7.17 µM.

Turning to `N#CC(C#N)=C1SCC(=O)CS1`, the TGI in [1], in test [2], in test [3], in test [4], in test [5] and in test [6] was above 100 µM each time. Besides, the TGI in test [7], in test [8], in [9] and in [10] was above 100 µM throughout.

Consider `CCCCCCCCCCCC[n+]1ccc(C(N)=O)cc1`, for which the GI50 in test [1] is 2.84 µM; in [2], 2.28 µM; in test [3], 1.55 µM; in test [4] it was 10.7 µM; in test [5], 9.08 µM; in test [6] it was 10.1 µM. For the same molecule, the GI50 in test [7] was 2.4 µM; in test [8], 1.47 µM; in [9], 1.74 µM; in test [10], 2.74 µM. Besides, the concentration for total growth inhibition (TGI) came to 10.2 µM in [1]; 8.72 µM in [2]; 2.98 µM in [3]; 26.2 µM in test [4]; 24.7 µM in test [5]; 26.2 µM in test [6]. For the same molecule, the TGI in [7] is 13.2 µM; in [8], 4.56 µM; in test [9] it was 5.46 µM; in test [10] it was 11.6 µM.

Regarding `Clc1ccc(SCCCCCCCCCCSc2ccc(Cl)cc2)cc1`, the TGI in test [1] is above 100 µM; in test [2], above 70.7 µM; in test [3], above 100 µM; in [4], above 100 µM; in test [5], above 100 µM; in test [6], above 100 µM. In addition, the TGI in test [7] was above 100 µM; in [8], above 78.3 µM; in test [9], above 100 µM; in test [10], above 100 µM.

On to `CN(C)c1ccc(O)c2c1C[C@H]1C[C@H]3[C@H](N(C)C)C(=O)C(C(N)=O)=C(O)[C@@]3(O)C(=O)C1=C2O`, for which the GI50 in test [1] is 4.01 µM; in test [2] it was 4.92 µM; in test [3], 5.51 µM; in test [4], 2.16 µM; in [5], 3.65 µM; in test [6], 5.65 µM. Moreover, the GI50 in [7] was 3.64 µM; in [8], 15.5 µM; in test [9] it was 4.01 µM; in test [10], 3.35 µM. Further, the TGI is 71.5 µM in test [1]; 39.5 µM in test [2]; 20.5 µM in test [3]; 20.9 µM in [4]; 79.8 µM in test [5]; above 100 µM in test [6]. The TGI in test [7] was 31.9 µM; in test [8] it was 88.8 µM; in [9], 69.7 µM; in [10] it was 16.9 µM.

For the molecule `Cc1cc(=O)oc2cc(OCc3nc4ccccc4c(=O)[nH]3)ccc12`, the TGI in test [1], in test [2], in test [3], in test [4], in test [6] and in test [7] was above 100 µM in each case. Also, the TGI in test [8], in [9] and in test [10] was above 100 µM in each case.

Turning to `C/C(=N\O)C(CN1CCCCC1)C(c1ccccc1)c1c(O)c2ccccc2oc1=O` (stereo not drawn), the concentration for total growth inhibition (TGI) in test [1], in test [2], in [3], in test [4], in [6] and in test [7] was above 100 µM throughout. Further, the TGI in test [8], in test [9] and in [10] was above 100 µM each time.

As to `CCOc1ccccc1NC(=O)C1=C(C)NC(C)=C(C(=O)Nc2ccccc2OCC)C1c1ccc(NC(C)=O)cc1`, the concentration for total growth inhibition (TGI) is 49 µM in test [1]; above 100 µM in test [2]; 41.1 µM in test [3]; above 100 µM in [4]; above 100 µM in [5]; above 100 µM in test [6]. For the same molecule, the concentration for total growth inhibition (TGI) in [7], in [8] and in test [9] was above 100 µM in each case.

For `CCCN(CCC)C(=O)[C@H](CC)[C@@H]1CC[C@@H](C)[C@@H]([C@H](C)[C@@H](O)[C@@H](C)C(=O)[C@H](CC)C2O[C@]3(C=C[C@@H](O)[C@]4(CC[C@@](C)([C@H]5CC[C@](O)(CC)[C@H](C)O5)O4)O3)[C@H](C)C[C@@H]2C)O1` (stereo partly drawn), the GI50 in [1] is 3.33 µM; in test [2], 1.84 µM; in [4] it was 1.95 µM; in test [5] it was 2.12 µM; in test [6] it was 3.18 µM; in [7], 1.5 µM. For the same molecule, the GI50 is 2.09 µM in test [8], 1.71 µM in test [9] and 1.71 µM in test [10]. Besides, the TGI in test [1] turned out to be 13.6 µM; in test [2] it was 4.46 µM; in [4], 8.7 µM; in test [5], 7.03 µM; in [6] it was 26.9 µM; in [7], 3 µM. For the same molecule, the TGI in test [8] was 5.27 µM; in [9], 4.04 µM; in test [10], 4.93 µM.

`COc1cc(C(=O)CC2(O)C(=O)Nc3c(Cl)cc(Cl)cc32)ccc1O` (stereo not drawn): the TGI was above 100 µM in [1]; above 100 µM in [2]; 83.5 µM in test [3]; above 100 µM in [4]; above 100 µM in test [5]; above 100 µM in [6]. Also, the total growth inhibition concentration (TGI) in test [7], in test [8] and in [9] was above 100 µM each time.

Take `CCOC(=O)NC(=O)c1cn(CCN2CCN(C(=O)NCCCCCCNC(=O)N3CCN(CCn4cc(C(=O)NC(=O)OCC)c(=O)n(CCN(CC)CC)c4=O)CC3)CC2)c(=O)n(CCC(CC)CC)c1=O`: the TGI in test [1], in test [2], in test [3], in test [5], in [6] and in test [7] was above 100 µM each time. For the same molecule, the total growth inhibition concentration (TGI) in test [8], in [9] and in test [10] was above 100 µM each time.

As for `COc1ccc(/C=C/C(=O)c2cc3c(N)c(C(=O)Nc4ccccc4)sc3nc2C)cc1`, the GI50 is 0.252 µM in test [1]; 0.146 µM in [2]; 0.258 µM in test [4]; 0.688 µM in test [5]; 0.273 µM in test [6]; 0.332 µM in test [7]. Also, the figures for the 50% growth inhibitory concentration (GI50) in test [8], in test [9] and in test [10] were 0.385 µM, 0.114 µM and 0.119 µM, respectively. Besides, the TGI was above 22.5 µM in test [1]; 0.791 µM in [2]; above 50 µM in test [4]; 20.1 µM in [5]; above 50 µM in test [6]; 2.77 µM in test [7]. Moreover, the values for the TGI in test [8], in test [9] and in [10] were above 50 µM, 2.31 µM and above 50 µM, respectively.

With `O=C1C[C@H]2CC3(CC[C@H]2CN1)OCCO3`, the TGI in test [1], in test [2], in test [3], in test [4], in [5] and in test [6] was above 100 µM each time. Also, the concentration for total growth inhibition (TGI) in test [7], in [9] and in test [10] was above 100 µM each time.

For the molecule `C/C(=C\CC[C@]1(C)OC(C)(C)OC1CC/C(C)=C/CO[Si](c1ccccc1)(c1ccccc1)C(C)(C)C)CC/C=C/CO[Si](C)(C)C(C)(C)C` (stereo partly drawn), the TGI in test [1], in test [2], in [4], in test [5], in test [6] and in test [7] was above 100 µM throughout. Moreover, the total growth inhibition concentration (TGI) in test [8], in test [9] and in test [10] was above 100 µM in each case.

As for `O=C1/C(=C/c2ccc(Cl)cc2)COc2ccc(O)c(O)c21`, the GI50 was 0.404 µM in test [2]; 1.79 µM in test [3]; 1.07 µM in test [4]; 0.458 µM in test [5]; 1.79 µM in [6]; 0.33 µM in test [7]. In addition, the GI50 in [8] was 1.6 µM; in [9], 1.34 µM; in [10] it was 1.27 µM. Also, the TGI came out at 1.48 µM in test [2]; 3.31 µM in test [3]; 2.28 µM in test [4]; 1.84 µM in [5]; 4.77 µM in test [6]; 1.36 µM in test [7]. Besides, the TGI in test [8] was 3.21 µM; in test [9] it was 2.75 µM; in test [10], 2.63 µM.
